Assay results: patent US8133884B2, “Compounds for the treatment of hepatitis C” (priority 2008, dated 2012)

Assays:
HCV replicon = HCV replicon assay (FRET or luciferase reporter); assay type: cell-based; conditions: Hepatitis C virus, one of the methods described
Procedure, shortened: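 HCV replicon Huh-7 cells were exposed to titrated compound at 37 °C, with Alamar blue as a cytotoxicity read. Replication was measured by NS3 cleavage of an EDANS/DABCYL FRET peptide (20 μM, 340/490 nm kinetic read) or by Renilla luciferase, with background from high-dose protease inhibitor wells. EC50 was taken as 50% signal reduction; a 384-well format used 3.0×10^3 cells/well, 0.5% DMSO and 3 days.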

HCV NS5B = target: T1, HCV NS5B (Hepatitis C virus genotype 1b, UniProt Q9WMX2); assay: Modified HCV NS5B RdRp enzyme assay (preincubation protocol); assay type: biochemical
T1 construct: The protein was expressed with an 18 amino acid C-terminal truncation to enhance the solubility; made in house; host or cells: E. coli BL21(DE3)
Procedure, shortened: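 C-terminally truncated (Δ18) genotype 1b NS5B from E. coli, 14 nM, added to compound first, then polyA template (0.2 nM), 3H-UTP (0.29 μM) and oligo-dT12 primer precaptured on streptavidin SPA beads (20 nM). Run 4 h at 30° C, pH 7.5, 2% DMSO; IC50 fitted from seven concentrations.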

T1 sequence (Q9WMX2 2420-2992): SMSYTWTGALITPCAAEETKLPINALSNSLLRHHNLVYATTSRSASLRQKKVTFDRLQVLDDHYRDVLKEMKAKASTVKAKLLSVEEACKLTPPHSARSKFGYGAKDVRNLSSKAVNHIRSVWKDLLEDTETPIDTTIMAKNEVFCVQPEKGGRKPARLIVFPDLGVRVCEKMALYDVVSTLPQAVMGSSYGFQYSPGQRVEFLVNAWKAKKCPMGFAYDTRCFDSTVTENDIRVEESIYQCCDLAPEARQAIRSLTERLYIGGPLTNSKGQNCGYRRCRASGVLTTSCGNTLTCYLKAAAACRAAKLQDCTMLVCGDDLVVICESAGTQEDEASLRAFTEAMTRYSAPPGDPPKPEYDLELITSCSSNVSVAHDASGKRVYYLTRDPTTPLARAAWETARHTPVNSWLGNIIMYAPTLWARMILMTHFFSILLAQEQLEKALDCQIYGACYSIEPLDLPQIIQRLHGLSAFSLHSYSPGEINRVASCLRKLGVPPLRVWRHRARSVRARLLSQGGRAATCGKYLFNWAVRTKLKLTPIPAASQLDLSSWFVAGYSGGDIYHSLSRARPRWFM

| SMILES | EC50 (HCV replicon; class symbol) | IC50 (HCV NS5B; class symbol) | EC50 (HCV replicon; exact value) | IC50 (HCV NS5B; exact value) |
| --- | --- | --- | --- | --- |
| COc1ccc2c(c1)C=C(c1c(C(=O)N3C[C@@H](C)N(C)[C@@H](C)C3)cnn1C1CC1)Cn1c-2c(C2CCCCC2)c2ccc(C(=O)NS(=O)(=O)C(C)C)cc21 | 1.7 to 500 nM | 1.7 to 500 nM |  |  |
| COc1ccc2c(c1)C=C(c1c(C(=O)N3CCOCC3)cnn1C1CC1)Cn1c-2c(C2CCCCC2)c2ccc(C(=O)NS(=O)(=O)C(C)C)cc21 | 1.7 to 500 nM | 1.7 to 500 nM |  |  |
| COc1ccc2c(c1)C=C(c1c(C(=O)N3C[C@@H](C)N(C)[C@@H](C)C3)cnn1C1CCC1)Cn1c-2c(C2CCCCC2)c2ccc(C(=O)NS(=O)(=O)CC(C)C)cc21 | 1.7 to 500 nM | 1.7 to 500 nM |  |  |
| COc1ccc2c(c1)C=C(c1c(C(=O)N3CCOCC3)cnn1C1CCC1)Cn1c-2c(C2CCCCC2)c2ccc(C(=O)NS(=O)(=O)CC(C)C)cc21 | 1.7 to 500 nM | 1.7 to 500 nM |  |  |
| COc1ccc2c(c1)C=C(c1c(C(=O)N3C[C@@H](C)O[C@@H](C)C3)cnn1C1CCC1)Cn1c-2c(C2CCCCC2)c2ccc(C(=O)NS(=O)(=O)CC(C)C)cc21 | 1.7 to 500 nM | 1.7 to 500 nM |  |  |
| COc1ccc2c(c1)C=C(c1c(C(=O)N3CC4CCC(C3)N4C)cnn1C1CCC1)Cn1c-2c(C2CCCCC2)c2ccc(C(=O)NS(=O)(=O)CC(C)C)cc21 | 1.7 to 500 nM | 1.7 to 500 nM |  |  |
| COc1ccc2c(c1)C=C(c1c(C(=O)N3C4CCC3CN(C)C4)cnn1C1CCC1)Cn1c-2c(C2CCCCC2)c2ccc(C(=O)NS(=O)(=O)C(C)C)cc21 | 1.7 to 500 nM | 1.7 to 500 nM |  |  |
| COc1ccc2c(c1)C=C(c1c(C(=O)N3C[C@@H](C)N(C)[C@@H](C)C3)cnn1C1CCC1)Cn1c-2c(C2CCCCC2)c2ccc(C(=O)NS(=O)(=O)C(C)C)cc21 | 1.7 to 500 nM | 1.7 to 500 nM |  |  |
| COc1ccc2c(c1)C=C(c1c(C(=O)N3CCOCC3)cnn1C1CCC1)Cn1c-2c(C2CCCCC2)c2ccc(C(=O)NS(=O)(=O)C(C)C)cc21 | 1.7 to 500 nM | 1.7 to 500 nM |  |  |
| COc1ccc2c(c1)C=C(c1c(C(=O)N3C[C@@H](C)O[C@@H](C)C3)cnn1C1CCC1)Cn1c-2c(C2CCCCC2)c2ccc(C(=O)NS(=O)(=O)C(C)C)cc21 | 1.7 to 500 nM | 1.7 to 500 nM |  |  |
| COc1ccc2c(c1)C=C(c1c(C(=O)N3CC4CCC(C3)N4C)cnn1C1CCC1)Cn1c-2c(C2CCCCC2)c2ccc(C(=O)NS(=O)(=O)C(C)C)cc21 | 1.7 to 500 nM | 1.7 to 500 nM |  |  |
| COc1ccc2c(c1)C=C(c1c(C(=O)N3C4CCC3CC(C)(O)C4)cnn1C1CCC1)Cn1c-2c(C2CCCCC2)c2ccc(C(=O)NS(=O)(=O)CC(C)C)cc21 (centres unmarked) | 1.7 to 500 nM | 1.7 to 500 nM |  |  |
| COc1ccc2c(c1)C=C(c1c(C(=O)N3C4CCC3CC(C)(O)C4)cnn1C1CCC1)Cn1c-2c(C2CCCCC2)c2ccc(C(=O)NS(=O)(=O)C(C)C)cc21 (centres unmarked) | 1.7 to 500 nM | 1.7 to 500 nM |  |  |
| CCOC(=O)c1cnn(C2CCN(C)CC2)c1C1=Cc2cc(OC)ccc2-c2c(C3CCCCC3)c3ccc(C(=O)O)cc3n2C1 | 1.7 to 500 nM | 1.7 to 500 nM |  |  |
| COc1ccc2c(c1)C=C(c1c(C(=O)N3C4COCC3COC4)cnn1C1CCN(C)CC1)Cn1c-2c(C2CCCCC2)c2ccc(C(=O)NS(=O)(=O)C(C)C)cc21 | 1.7 to 500 nM | 1.7 to 500 nM | 130 nM | 7.5 nM |
| COc1ccc2c(c1)C=C(c1c(C(=O)N3CCOCC3)cnn1C1CCN(C)CC1)Cn1c-2c(C2CCCCC2)c2ccc(C(=O)NS(=O)(=O)C(C)C)cc21 | 1.7 to 500 nM | 1.7 to 500 nM |  |  |
| COc1ccc2c(c1)C=C(c1c(C(=O)N3C4CCC3CN(C)C4)cnn1C1CCN(C)CC1)Cn1c-2c(C2CCCCC2)c2ccc(C(=O)NS(=O)(=O)C(C)C)cc21 | 1.7 to 500 nM | 1.7 to 500 nM |  |  |
| COc1ccc2c(c1)C=C(c1c(C(=O)N3C[C@@H](C)O[C@@H](C)C3)cnn1C1CCN(C)CC1)Cn1c-2c(C2CCCCC2)c2ccc(C(=O)NS(=O)(=O)C(C)C)cc21 | 1.7 to 500 nM | 1.7 to 500 nM | 5.5 nM | 5.4 nM |
| COc1ccc2c(c1)C=C(c1c(C(=O)N3C[C@@H](C)N(C)[C@@H](C)C3)cnn1C1CCN(C)CC1)Cn1c-2c(C2CCCCC2)c2ccc(C(=O)NS(=O)(=O)C(C)C)cc21 | 1.7 to 500 nM | 1.7 to 500 nM |  |  |
| CCOC(=O)c1cnn(C2CCN(C)CC2)c1C1=Cc2cc(OC)ccc2-c2c(C3CCCCC3)c3ccc(C(=O)NS(=O)(=O)C(C)C)cc3n2C1 | 1.7 to 500 nM | 1.7 to 500 nM |  |  |
| COc1ccc2c(c1)C=C(c1c(C(=O)N3C4CCC3CC(C)(O)C4)cnn1C1CCN(C)CC1)Cn1c-2c(C2CCCCC2)c2ccc(C(=O)NS(=O)(=O)C(C)C)cc21 (centres unmarked) | 1.7 to 500 nM | 1.7 to 500 nM | 10 nM | 96 nM |
| COCC1CN(C(=O)c2cnn(C3CCN(C)CC3)c2C2=Cc3cc(OC)ccc3-c3c(C4CCCCC4)c4ccc(C(=O)NS(=O)(=O)C(C)C)cc4n3C2)CCO1 (centres unmarked) | 1.7 to 500 nM | 1.7 to 500 nM |  |  |
